Source: ChEMBL document CHEMBL1129999, “Modeling, chemistry, and biology of the benzolactam analogues of indolactam V (ILV). 2. Identification of the binding site of the benzolactams in the CRD2 activator-binding domain of PKCdelta and discovery of an ILV analogue of improved isozyme selectivity” (J Med Chem, 1997)

Assays:
[1] = biological target: T1, Protein kinase C delta type (Homo sapiens, UniProt Q05655); assay: Displacement of [3H]- PDBu from recombinant PKC delta expressed in baculovirus
Target sequence in this assay (Q05655 whole entry): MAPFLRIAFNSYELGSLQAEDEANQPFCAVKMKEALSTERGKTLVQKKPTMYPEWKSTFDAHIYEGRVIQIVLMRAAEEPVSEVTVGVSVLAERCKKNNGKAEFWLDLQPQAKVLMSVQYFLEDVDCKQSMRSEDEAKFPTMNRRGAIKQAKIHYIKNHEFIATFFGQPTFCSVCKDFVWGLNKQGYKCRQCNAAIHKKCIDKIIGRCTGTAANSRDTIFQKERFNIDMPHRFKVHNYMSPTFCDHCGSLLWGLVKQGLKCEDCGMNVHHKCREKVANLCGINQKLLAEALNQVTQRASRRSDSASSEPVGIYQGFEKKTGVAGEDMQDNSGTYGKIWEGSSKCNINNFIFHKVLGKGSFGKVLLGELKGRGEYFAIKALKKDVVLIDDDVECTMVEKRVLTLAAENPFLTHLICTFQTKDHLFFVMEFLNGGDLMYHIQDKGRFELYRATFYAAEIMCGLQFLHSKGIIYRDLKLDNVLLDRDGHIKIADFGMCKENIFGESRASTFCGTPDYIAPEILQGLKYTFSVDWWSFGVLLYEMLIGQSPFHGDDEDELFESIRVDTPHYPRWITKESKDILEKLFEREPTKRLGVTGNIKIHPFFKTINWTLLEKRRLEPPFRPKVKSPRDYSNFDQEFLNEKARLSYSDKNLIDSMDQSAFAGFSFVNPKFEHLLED

[2] = biological target: Protein kinase C alpha type (Homo sapiens, UniProt P17252); assay: Displacement of [3H]- PDBu from recombinant PKC alpha expressed in baculovirus
[3] = biological target: T2, Protein kinase C epsilon type (Homo sapiens, UniProt Q02156); assay: Displacement of [3H]- PDBu from recombinant PKC epsilon expressed in baculovirus
T2 sequence (Q02156 whole entry): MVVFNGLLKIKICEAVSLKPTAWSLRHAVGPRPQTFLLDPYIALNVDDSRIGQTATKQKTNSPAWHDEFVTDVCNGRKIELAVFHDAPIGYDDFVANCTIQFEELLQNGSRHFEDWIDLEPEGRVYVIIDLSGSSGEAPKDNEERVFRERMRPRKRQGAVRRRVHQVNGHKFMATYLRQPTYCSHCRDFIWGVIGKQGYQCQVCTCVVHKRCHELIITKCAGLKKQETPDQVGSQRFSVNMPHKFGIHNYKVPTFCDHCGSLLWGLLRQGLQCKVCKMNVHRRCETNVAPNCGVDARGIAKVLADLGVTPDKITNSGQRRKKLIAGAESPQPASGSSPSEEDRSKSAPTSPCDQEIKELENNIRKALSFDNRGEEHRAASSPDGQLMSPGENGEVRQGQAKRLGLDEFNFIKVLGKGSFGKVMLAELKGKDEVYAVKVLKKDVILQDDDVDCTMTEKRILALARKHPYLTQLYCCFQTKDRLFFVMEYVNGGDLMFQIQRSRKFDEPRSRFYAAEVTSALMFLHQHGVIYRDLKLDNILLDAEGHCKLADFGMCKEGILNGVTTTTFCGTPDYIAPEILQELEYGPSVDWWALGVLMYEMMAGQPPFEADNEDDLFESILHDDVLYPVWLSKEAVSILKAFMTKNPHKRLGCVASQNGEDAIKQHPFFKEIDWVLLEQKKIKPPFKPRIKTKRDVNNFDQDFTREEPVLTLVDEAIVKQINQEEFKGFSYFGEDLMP

[4] = biological target: Protein kinase C gamma type (Homo sapiens, UniProt P05129); assay: Displacement of [3H]- PDBu from recombinant PKC gamma expressed in baculovirus
[5] = biological target: Protein kinase C beta type (Homo sapiens, UniProt P05771); assay: Displacement of [3H]- PDBu from recombinant PKC beta expressed in baculovirus
Chain of Protein kinase C beta type (P05771 whole entry): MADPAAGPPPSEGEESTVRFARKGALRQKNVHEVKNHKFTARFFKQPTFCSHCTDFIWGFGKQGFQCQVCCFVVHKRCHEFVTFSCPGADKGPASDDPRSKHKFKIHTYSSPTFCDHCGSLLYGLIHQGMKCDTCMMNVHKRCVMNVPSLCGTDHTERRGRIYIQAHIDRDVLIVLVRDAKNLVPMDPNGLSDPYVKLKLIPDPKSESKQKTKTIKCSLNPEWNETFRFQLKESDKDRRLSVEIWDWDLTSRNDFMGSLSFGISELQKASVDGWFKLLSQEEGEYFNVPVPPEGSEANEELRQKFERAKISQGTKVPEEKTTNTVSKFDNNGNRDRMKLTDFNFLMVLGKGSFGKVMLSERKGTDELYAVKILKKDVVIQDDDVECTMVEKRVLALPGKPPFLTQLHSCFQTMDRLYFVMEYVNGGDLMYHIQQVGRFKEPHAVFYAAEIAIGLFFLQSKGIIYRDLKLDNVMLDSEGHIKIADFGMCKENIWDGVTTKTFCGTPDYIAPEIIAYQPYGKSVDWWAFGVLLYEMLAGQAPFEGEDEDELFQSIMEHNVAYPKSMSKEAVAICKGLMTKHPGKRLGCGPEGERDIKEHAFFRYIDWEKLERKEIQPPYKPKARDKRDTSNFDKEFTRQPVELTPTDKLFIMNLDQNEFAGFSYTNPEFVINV

[6] = biological target: T1, Protein kinase C delta type; assay: Inhibition of [3H]-PDBu binding to PKC delta mutant Gln 27-Val
Target sequence in this assay (Q05655 whole entry, looked up): as the sequence (Q05655 whole entry) above

[7] = biological target: T1, Protein kinase C delta type; assay: Inhibition of [3H]PDBu binding to PKC delta mutant Leu 20-Gly
Target sequence in this assay (Q05655 whole entry, looked up): as the sequence (Q05655 whole entry) above

[8] = biological target: T1, Protein kinase C delta type; assay: Inhibition of [3H]PDBu binding to PKC delta mutant Pro 11-Gly
Target sequence in this assay (Q05655 whole entry, looked up): as the sequence (Q05655 whole entry) above

[9] = biological target: T1, Protein kinase C delta type; assay: Inhibition of [3H]PDBu binding to PKC delta wild type
Target sequence in this assay (Q05655 whole entry): as above

[10] = biological target: T1, Protein kinase C delta type; assay: Inhibition of [3H]PDBu binding to PKC delta mutant Gln 27-Gly (No binding)
Target sequence in this assay (Q05655 whole entry, looked up): as the sequence (Q05655 whole entry) above

[11] = biological target: T1, Protein kinase C delta type; assay: Inhibition of [3H]-PDBu binding to PKC delta mutant Leu 24-Gly (No binding)
Target sequence in this assay (Q05655 whole entry, looked up): as the sequence (Q05655 whole entry) above

Row | Compound | Ki [1] [µM] | Ki [2] [µM] | Ki [3] [µM] | Ki [4] [µM] | Ki [5] [µM] | Ki [6] [µM] | Ki [7] [µM] | Ki [8] [µM] | Ki [9] [µM] | Ki [10] | Ki [11]
1 | CCCCCCCCCCc1ccc2c(c1)C[C@@H](CO)NC(=O)[C@H](C(C)C)N2C | 0.142 | 0.0466 | 0.187 | 0.122 | – | – | – | – | – | – | –
2 | CCCCCCCCC#Cc1ccc2c(c1)C[C@@H](CO)NC(=O)[C@H](C(C)C)N2C | 0.122 | 0.0147 | 0.142 | 0.0407 | 0.0174 | 0.933 | 0.134 | 0.73 | 0.0107 | – | –
3 | CCCC(=O)O[C@@H]1[C@@H](C)[C@@]2(O)[C@@H](C=C(CO)C[C@]3(O)C(=O)C(C)=C[C@@H]23)[C@@H]2C(C)(C)[C@]12OC(=O)CCC | – | – | – | – | – | – | – | – | – | Not Active | Not Active
4 | CC(C)[C@H]1C(=O)N[C@H](CO)Cc2ccccc2N1C | – | 0.334 | – | – | – | – | – | – | – | – | –
5 | CC(C)[C@H]1C(=O)N[C@H](CO)Cc2c[nH]c3cccc(c23)N1C [INDOLACTUM] | 0.0082 | – | 0.0219 | 0.0194 | 0.0061 | – | – | – | – | – | –
6 | CCCCCCCCc1ccc2c3c(c[nH]c13)C[C@@H](CO)NC(=O)[C@H](C(C)C)N2C | 0.0008 | 0.0005 | 0.001 | 0.0012 | 0.0004 | – | – | – | – | – | –
